Counter-ions that a name gives are not always drawn.
Experiments:
Type in all cases: in vivo, human
[1] = system: patients with a diagnosis of chronic treatment-refractory cough; test: Cough Severity VAS (daily diary), open-label pilot study
Description: (§1) Orvepitant maleate Form 1 was evaluated in an open-label pilot study to determine the efficacy of multiple dosing in male and female patients with a diagnosis of chronic treatment-refractory cough for over 3 months. The study was a single-arm (30 mg orvepitant maleate Form 1 once daily), 4-week study with a 4 week follow-up. There were five scheduled clinic visits; Screening visit, Baseline visit, Week 1 visit, Week 4 visit (end of treatment period) and a Week 8 Follow-up visit. The following instruments were used to assess efficacy: • Subjects were fitted with an ambulatory cough monitor (ACM) to record objective cough frequency over 24 hours at Screening, Weeks 1, 4 and 8 • Cough-specific Quality of Life Questionnaire (CQLQ): Subjects were asked to complete this questionnaire at Screening, Weeks 1, 4 and 8 • Global Rating of Change for Cough Frequency & Severity Scale: Subjects were asked to complete this scale at Weeks 1, 4 and 8 • Cough Severity VAS: Subjects were issued with diaries for daily recording of Cough Severity VAS scores. 13 subjects were enrolled into the study and provided data on cough frequency, Cough QOL, Global Rating of Change for Cough Frequency and Severity, and Cough Severity VAS, but one of the 13 subjects had data missing on cough frequency (day and night) at week 4.

[2] = system: patients with a diagnosis of chronic treatment-refractory cough; test: Objective cough frequency by ambulatory cough monitor, open-label pilot study; settings: for daytime objective cough frequency, mean change from Baseline: Week 4 (end of treatment) vs Baseline, 30 mg once daily, p<0.001, primary endpoint
Description: as §1, with “4. The primary endpoint was change in objective daytime cough frequency at the end of the treatment period at Week 4 compared to Baseline.” for “4.”

[3] = system: patients with a diagnosis of chronic treatment-refractory cough; test: Global Rating of Change for Cough Frequency & Severity Scale, open-label pilot study
Description: as §1

[4] = system: patients with a diagnosis of chronic treatment-refractory cough; test: Cough-specific Quality of Life Questionnaire (CQLQ), open-label pilot study
Description: as §1

Compound: Cc1cc(F)ccc1[C@H]1C[C@@H](N2CCN3C(=O)CC[C@H]3C2)CCN1C(=O)N(C)[C@H](C)c1cc(C(F)(F)F)cc(C(F)(F)F)c1 [Orvepitant maleate Form 1, 2-(R)-(4-Fluoro-2-methyl-phenyl)-4-(S)-((8aS)-6-oxo-hexahydro-pyrrolo[1,2-α]-pyrazin-2-yl)-piperidine-1-carboxylic acid [1-(R)-(3,5-bis-trifluoromethyl-phenyl)-ethyl]-methylamide maleate]
- night-time cough severity VAS, average change from Baseline ([1]; Week 1 of study, p=0.01): −14%
- daytime cough severity VAS, average change from Baseline ([1]; Week 2 of study, p=0.002): −39%
- daytime cough severity VAS, average change from Baseline ([1]; Week 6 of study, p=0.001): −14%
- night-time cough severity VAS, average change from Baseline ([1]; Week 6 of study, p=0.017): −18%
- reduction in mean night-time objective cough frequency ([2]; Week 1 vs Baseline, p=0.19): no significant reduction
- daytime objective cough frequency, mean change from Baseline ([2]; negative binomial regression model): −18.9 coughs/hr
- daytime objective cough frequency, mean change from Baseline [2]: −26%
- reduction in mean night-time objective cough frequency ([2]; Week 4 vs Baseline, p=0.65): no significant reduction
- change in daytime objective cough frequency ([2]; Week 8 compared to Week 4, p=0.86): no significant change
- reduction in mean night-time objective cough frequency ([2]; between Weeks 4 and 8, p=0.10): no significant reduction
- Global Rate of Change, cough frequency: subjects who felt worse ([3]; Week 1): No subjects felt worse
- Global Rate of Change, cough severity: subjects who felt worse ([3]; Week 1): No subjects felt worse
- Global Rate of Change, cough frequency: median improvement score ([3]; Week 1, 3 = somewhat better): 3
- Global Rate of Change, cough severity: median improvement score ([3]; Week 1, 4 = moderately better): 4
- Global Rate of Change, cough frequency: subjects who felt worse ([3]; Week 4): No subjects felt worse
- Global Rate of Change, cough severity: subjects who felt worse ([3]; Week 4): No subjects felt worse
- Global Rate of Change, cough frequency: median improvement score ([3]; Week 4, 3 = somewhat better): 3
- Global Rate of Change, cough severity: median improvement score ([3]; Week 4, 3 = somewhat better): 3
- CQLQ Overall score, mean change from Baseline ([4]; Week 1, p<0.001): −4.0
- CQLQ Overall score, mean change from Baseline ([4]; Week 4, p=0.005): −4.4
- CQLQ Overall score, mean change from Baseline ([4]; Week 8, p=0.033): −3.4
- CQLQ Extreme Physical domain, change from Baseline ([4]; Weeks 1, 4 and 8): significant changes from Baseline
- CQLQ Psychosocial domain, change from Baseline ([4]; Weeks 1, 4 and 8): significant changes from Baseline
- CQLQ Overall score, difference ([4]; between Weeks 4 and 8, p=0.52): no significant difference
- CQLQ, any of the domains, change ([4]; from Week 4 to Week 8): no significant changes
- CQLQ Emotional domain, change ([4]; in vivo): No significant changes

Reference: patent US9907795B2, “Method of treatment of chronic cough administering orvepitant in combination with other therapeutic agents” (NeRRe Therapeutics Limited, priority 2016, dated 2018)
